Source: article PMC4563141, “Reverse Engineering of Vaccine Antigens Using High Throughput Sequencing-enhanced mRNA Display” (EBioMedicine, 2015)
Peptide text beside a SMILES is read from it.

What was measured:
[1] = tested on: mAb41; assay: Competitive ELISA for binding of mAb41 to immobilized peptide B; design: species or system mice; settings: 1 μg biotinylated pB immobilized, 12 ng mAb41, competitor peptide 0 to 0.8 μg
Description: Streptavidin coated 96-well ELISA plates were coated with 1 μg/well biotinylated peptide B as previously described ([Major et al., 1999]). Equal amounts of mAb (12 ng in 100 μl PBS containing 5% milk) were added to each well with increasing amounts of competitor peptide (from 0 to 0.8 μg). After 1 hr incubation at room temperature and washing, secondary antibody was added. The substrate reaction and absorbance reading were performed as described above.

[2] = tested on: mAb41 Fab; assay: Affinity measurements by Octet (binding kinetics of mAb41 Fab to biotinylated peptides); design: species or system mice; settings: Octet RED, 1:1 model fit
Description: Binding kinetics of mAb41 Fab to selected peptides were measured using a Fortebio Octet Red 96 instrument (Menlo Park, CA). All assays were performed in 1 × kinetic buffer (Fortebio). Biotinylated peptides were loaded onto streptavidin biosensors (Fortebio) for 100 s and quenched with biocytin. A two-fold dilution series of antibody Fab (prepared using a mouse IgG1 kit, Pierce) was used as analyte. Association was performed for 300 s and dissociation for 900 s. Binding constants were obtained by fitting sensorgrams with a 1:1 model using ForteBio Data Analysis Software.

CSCC[C@H](NC(=O)[C@@H](N)CCSC)C(=O)N[C@@H](CCC(=O)O)C(=O)N[C@@H](CS)C(=O)N[C@@H](CCC(=O)O)C(=O)N[C@@H](CCCCN)C(=O)NCC(=O)N[C@@H](CCCCN)C(=O)N[C@@H](Cc1ccc(O)cc1)C(=O)N[C@H](C(=O)N[C@@H](CCC(N)=O)C(=O)NCC(=O)N[C@@H](Cc1c[nH]c2ccccc12)C(=O)N[C@@H](CC(C)C)C(=O)N[C@@H](CS)C(=O)N[C@@H](Cc1c[nH]cn1)C(=O)N[C@@H](CC(C)C)C(=O)N[C@@H](Cc1ccccc1)C(=O)N[C@@H](Cc1c[nH]c2ccccc12)C(=O)N[C@@H](CCC(=O)O)C(=O)N[C@@H](CC(=O)O)C(=O)N[C@@H](CS)C(=O)N[C@@H](CCC(N)=O)C(=O)N[C@@H](CC(=O)O)C(=O)N[C@@H](CCCNC(=N)N)C(=O)NCC(=O)N[C@@H](Cc1c[nH]c2ccccc12)C(=O)N[C@@H](CC(C)C)C(=O)N[C@@H](CCC(=O)O)C(=O)N[C@@H](CCC(N)=O)C(=O)N[C@@H](CC(C)C)C(=O)N[C@@H](CCCNC(=N)N)C(=O)N[C@@H](CC(N)=O)C(=O)N[C@@H](CO)C(=O)N[C@@H](CS)C(=O)N[C@@H](C)C(=O)O)C(C)C [p41_1] (H-MMECEKGKYVQGWLCHLFWEDCQDRGWLEQLRNSCA-OH; N-terminus and C-terminus assumed)
competition with wild type pB for binding to mAb41 [1]: inhibited binding of mAb41 to immobilized pB | kon ([2]; association 300 s): 14400 M⁻¹ s⁻¹ | Kd ([2]; biotinylated peptide on streptavidin biosensor, mAb41 Fab 125 nM to 7.8 nM 2-fold series): 16.7 nM | kdis ([2]; dissociation 900 s): 0.000241 s⁻¹
